From patent US10781470B2, “Diagnosis and treatment of incipient diabetes” (priority 2015, dated 2020)

Test system: stool alkaline phosphatase (AP)
Test: Stool alkaline phosphatase assay in presence of AP isoform inhibitors
Conditions: stool supernatant; for inhibition of the AP activity in the stool: inhibitor 10 mM, pNPP substrate
Description: Homogenization of stool: The supernatant of a homogenized stool suspension was used for IAP assay. A small amount of stool (milligrams) was measured and then the ‘stool dilution buffer’ (10 mM (millimolar) Tris-HCl, pH 8.0, 1 mM magnesium chloride, 10 μM (micromolar) zinc chloride) at a defined ratio was added. Usually, 50 μl (microliter) of stool dilution buffer was added to 1 mg of stool. The sample was vigorously vortexed to prepare a homogenized stool suspension, which was then centrifuged at 10,000×g for 20 min, and the supernatant containing IAP was collected and assayed for IAP concentration.
Alkaline Phosphatase Assay. The stool supernatant was assayed for alkaline phosphatase (AP) following an established protocol using the automatic biochemistry analyzer mentioned above (Nanjing, Jiangsu, China). In brief, 20 of supernatant was added to 1 ml of enzyme assay buffer (1.25 M diethanolamine (DEA) buffer, pH 10.2, 0.6 mM magnesium chloride) containing 10 mM p-nitrophenyl phosphate (pNPP), and the reaction mixture was incubated for one min at 37° C. followed by measuring the AP concentration by the analyzer pre-calibrated with AP standards. To determine the major isoform among stool APs, prior to assaying for AP activity an aliquot of stool sample was treated for 10 min with L-phenylalanine (L-Phe, 10 mM final conc.), a specific inhibitor of LAP, and another aliquot with L-homoarginine (L-Arg, 10 final conc.), an inhibitor of tissue non-specific alkaline phosphatase (TNAP). Each aliquot treated with an inhibitor was then mixed with the reaction buffer containing an equal concentration (10 mM) of the respective inhibitor, and assayed for AP activity using the analyzer. […] All AP assays were performed by a single laboratory technologist who was blinded to the diagnoses of participants. […]
Stool samples of non-diabetic healthy controls and T2DM patients were homogenized in a stool dilution buffer followed by centrifuging and collection of supernatant. […] Statistics: Values are expressed as mean+/−SEM. […]

Compound: N=C(N)NCCCC[C@H](N)C(=O)O [L-Arg, L-homoarginine]
- inhibitory effect on the stool AP activity (either group (healthy controls and T2DM patients)): no inhibitory effect

Compound: N[C@@H](Cc1ccccc1)C(=O)O [L-Phe, L-phenylalanine]
- inhibition of the AP activity in the stool (total diabetic (T2DM) population): approx. 70%
- inhibition of the AP activity in the stool (total healthy population): approx. 80%
